In patent US20130172318A1, “ANTI-INFLAMMATORY AGENTS” (priority 2010, published 2013):

Key:
[1] = system: MCP-1 induced migration of THP-1 cells; conditions: MCP-1 induced THP-1 cell migration assay; disclosed in WO2005/053702; cited from earlier work
[2] = system: endotoxin-stimulated TNF-alpha levels; assay: Murine sub-lethal endotoxemia model, serum TNF-α by ELISA; assay type: in vivo, mouse; conditions: single dose 1 mg/kg p.o. one hour prior to LPS i.p.; female CD1 mice; serum two hours after challenge
Experimental: The anti-inflammatory efficacy of an exemplary compound according to the present invention was tested using the murine sub-lethal endotoxemia model.
Briefly, the method is as follows: Female CD1 mice (28-30 g, ˜7 weeks of age) were dosed with their respective treatment in sterile filtered 1% CMC by oral gavage in a dose volume of 10 ml/kg one hour prior to an endotoxin (LPS) challenge. The endotoxin challenge was injected by the intraperitoneal route containing 675,000 Endotoxin Units of LPS (E. coli strain 0111:B4 (Code L4130)) in endotoxin free PBS. Mice were left for two hours and then exsanguinated under terminal anaesthesia and blood was taken. Serum was prepared from this terminal bleed and aliquoted and stored at −20° C. Serum TNF-α levels were measured by ELISA per manufacturers instructions (R and D Systems).
Eight animals were treated in each group, and the data for the animal with the highest and lowest TNF-α level in each group were eliminated, and the mean and standard error reported for the remaining six animals. Data for untreated animals were taken from an historical control experiment.

| SMILES | fold more potent as a BSCI than dodecanoyl-3-aminocaprolactam [1] | inhibition of endotoxin-stimulated TNF-alpha levels [2] |
| --- | --- | --- |
| CCCCCCCCCCC(C)(C)C(=O)NC1CCCCNC1=O (centres unmarked) [2′2′-dimethyldodecenanoyl-3-aminocaprolactam] | 10 fold | – |
| O=C(N[C@H]1CCCNC1=O)c1ccc(F)cc1 [Example 3, (S)-4-Fluoro-N-(2-oxopiperidin-3-yl)benzamide] | – | 50% |
